# Measured values from patent US12686687B2, “Compounds and uses thereof” (Foghorn Therapeutics Inc., priority 2019, dated 2026).
# Like-named read-outs stand apart in the source and are kept apart here.
# Biological target: T1, Nanoluciferase-BRD9 fusion protein (3×FLAG-NLuc-BRD9) in SYO-1 cells (Homo sapiens, UniProt Q9H8M2)
# T1 construct: expressed in transfected cells; host or cells: SYO-1
# T1 sequence (Q9H8M2 1-597): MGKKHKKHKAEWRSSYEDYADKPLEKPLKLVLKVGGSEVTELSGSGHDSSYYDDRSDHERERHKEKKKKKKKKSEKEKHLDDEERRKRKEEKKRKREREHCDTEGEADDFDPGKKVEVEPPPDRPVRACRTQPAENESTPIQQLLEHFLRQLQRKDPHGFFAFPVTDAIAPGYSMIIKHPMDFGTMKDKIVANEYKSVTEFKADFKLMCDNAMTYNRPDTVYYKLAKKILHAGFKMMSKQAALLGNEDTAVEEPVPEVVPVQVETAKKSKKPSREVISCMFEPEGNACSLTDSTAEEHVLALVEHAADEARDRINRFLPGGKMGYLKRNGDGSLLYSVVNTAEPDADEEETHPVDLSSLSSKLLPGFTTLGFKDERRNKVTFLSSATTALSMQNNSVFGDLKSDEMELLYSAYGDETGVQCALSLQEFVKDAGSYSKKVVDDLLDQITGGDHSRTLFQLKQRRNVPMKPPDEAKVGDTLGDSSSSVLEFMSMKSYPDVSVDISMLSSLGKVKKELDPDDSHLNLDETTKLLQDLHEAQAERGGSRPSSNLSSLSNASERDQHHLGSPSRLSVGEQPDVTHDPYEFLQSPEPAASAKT
# Test: SYO1 BRD9 NanoLuc degradation assay
# Format: cell-based
# Settings: SYO-1 cells expressing 3×FLAG-NLuc-BRD9, 6 hours incubation, 1 μM top dose, read-out: SYO1 BRD9-NanoLuc degradation IC50
# Procedure, shortened: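 Stable SYO-1 line expressing 3×FLAG-NLuc-BRD9 was seeded at 8000 cells/well, then treated next day for 6 h with 10-point 3-fold dilutions (top 1 μM final). Nano-Glo luminescence was read. % inhibition was normalised to DMSO (high control) and 1 μM reference BRD9 degrader (low control).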
Compound,DC50 (Table 6B) [nM],DC50 (Table 6C) [nM]
COc1cc(-c2cn(C)c(=O)c3cc(C(=O)NC4CC5(C4)CN(C(=O)CCN4CCN(c6ccc7c(c6)C(=O)N(C6CCC(=O)NC6=O)C7=O)CC4)C5)sc23)cc(OC)c1CN(C)C (stereo not drawn) [Compound D74],< 10,–
COc1cc(Cl)cc(-c2cn(C)c(=O)c3cc(C(=O)NC4CCN(c5ccc6c(c5)C(=O)N(C5CCC(=O)NC5=O)C6)CC4)sc23)c1 (stereo not drawn) [Compound D93],–,< 10
COc1cc(-c2cn(C)c(=O)c3cc(C(=O)NC4CCN(CCCCCOc5ccc6c(c5)C(=O)N(C5CCC(=O)NC5=O)C6=O)CC4(F)F)sc23)cc(OC)c1CN1CCC1 (stereo not drawn) [Compound D28],< 10,–
COc1cc(-c2cn(C)c(=O)c3cc(C(=O)NC4CCN(CCCCCOc5cccc6c5C(=O)N(C5CCC(=O)NC5=O)C6=O)CC4F)sc23)cc(OC)c1CN(C)C (stereo not drawn) [Compound D84],< 10,–
COc1cc(-c2cn(C)c(=O)c3cc(C(=O)NC4CCN(CCN5CCC(c6ccc7c(c6)CN(C6CCC(=O)NC6=O)C7=O)CC5)CC4(F)F)sc23)cc(OC)c1CN(C)C (stereo not drawn) [Compound D195],–,< 10
COc1cc(-c2cn(C)c(=O)c3cc(C(=O)NC4CCN(C5CC6(C5)CN(c5ccc7c(c5)C(=O)N(C5CCC(=O)NC5=O)C7)C6)CC4(F)F)sc23)cc(OC)c1CN(C)C (stereo not drawn) [Compound D145],–,> 100
COc1cc(-c2cn(C)c(=O)c3cc(C(=O)NCC4CC5(CCN(CCN6CCN(c7ccc8c(c7)C(=O)N(C7CCC(=O)NC7=O)C8=O)CC6)CC5)C4)sc23)cc(OC)c1CN(C)C (stereo not drawn) [Compound D36],< 10,–
COc1cc(-c2cn(C)c(=O)c3cc(C(=O)NCC4CC5CN(CCN6CCN(c7ccc8c(c7)C(=O)N(C7CCC(=O)NC7=O)C8=O)CC6)CC5C4)sc23)cc(OC)c1CN(C)C (stereo not drawn) [Compound D43],< 10,–
COc1cc(OC)cc(-c2cn(C)c(=O)c3cc(C(=O)NC4CCN(c5ccc6c(c5)C(=O)N(C5CCC(=O)NC5=O)C6)CC4)sc23)c1 (stereo not drawn) [Compound D109],–,< 10
COc1cc(-c2cn(C)c(=O)c3cc(C(=O)NC4CCN(C5CN(c6ccc7c(c6)C(=O)N(C6CCC(=O)NC6=O)C7=O)C5)CC4(F)F)sc23)cc(OC)c1CN(C)C (stereo not drawn) [Compound D191],–,< 10
COc1cc(-c2cn(C)c(=O)c3cc(C(=O)NC4CCN(c5cccc(CN6CCC(=O)NC6=O)c5)CC4)sc23)cc(OC)c1CN(C)C [Compound D124],–,< 10
COc1cc(-c2cn(C)c(=O)c3cc(C(=O)N(C)C)sc23)cc(OC)c1CN1CCC2(CC1)CN(c1ccc3c(c1)C(=O)N(C1CCC(=O)NC1=O)C3)C2 (stereo not drawn) [Compound D133],–,< 10
COc1cc(-c2cn(C)c(=O)c3cc(C(=O)NC4CCN(C5CCN(c6ccc7c(c6)C(=O)N(C6CCC(=O)N(C)C6=O)C7)CC5)CC4(F)F)sc23)cc(OC)c1CN(C)C (stereo not drawn) [Compound D142],–,> 1000
COc1cc(-c2cn(C)c(=O)c3cc(C(=O)NC4CCN(C5CCN(c6ccc7c(c6)CN(C6CCC(=O)NC6=O)C7=O)CC5(F)F)CC4)sc23)cc(OC)c1CN(C)C (stereo not drawn) [Compound D127],–,< 10
COc1cc(-c2cn(C)c(=O)c3cc(C(=O)NC4CC5CC4CN5C(=O)CCN4CCN(c5ccc6c(c5)C(=O)N(C5CCC(=O)NC5=O)C6=O)CC4)sc23)cc(OC)c1CN(C)C (stereo not drawn) [Compound D68],> 10,–
COc1cc(-c2cn(C)c(=O)c3c(C)csc23)cc(OC)c1CN1CCC(CN2CCC3(CC2)CC(Oc2ccc4c(c2)C(=O)N(C2CCC(=O)NC2=O)C4=O)C3)CC1 (stereo not drawn) [Compound D160],–,< 10
COc1cc(-c2cn(C)c(=O)c3cc(C(=O)NCC4CC5(C4)CN(CCCN4CCN(c6ccc7c(c6)C(=O)N(C6CCC(=O)NC6=O)C7=O)CC4)C5)sc23)cc(OC)c1CN(C)C (stereo not drawn) [Compound D52],> 10,–
COc1cc(-c2cn(C)c(=O)c3ccsc23)cc(OC)c1CN1CCC2(CC1)CN(c1ccc3c(c1)C(=O)N(C1CCC(=O)N(COC(=O)[C@@H](N)C(C)C)C1=O)C3=O)C2 (stereo partly drawn) [Compound D107],–,< 10
COc1cc(-c2cn(C)c(=O)c3cc(C(=O)N[C@@H]4CCN(C5CCN(c6ccc7c(c6)C(=O)N([C@@H]6CCC(=O)NC6=O)C7)CC5)CC4(F)F)sc23)cc(OC)c1CN(C)C [Compound D135],–,< 10
COc1cc(-c2cn(C)c(=O)c3cc(C(=O)NC4CCN(CCN5CCN(c6ccc7c(c6)C(=O)N(C6CCC(=O)NC6=O)C7=O)CC5)CC4(F)F)sc23)cc(OC)c1CN(C)C (stereo not drawn) [Compound D79],< 10,–
COc1cc(-c2cn(C)c(=O)c3cc(C(=O)NC4CCN(CCCCCOc5ccc6c(c5)C(=O)N(C5CCC(=O)NC5=O)C6=O)CC4F)sc23)cc(OC)c1CN(C)C (stereo not drawn) [Compound D85],< 10,–

Compound,DC50 (Table 6B) [nM],DC50 (Table 6C) [nM]
COc1cc(-c2cn(C)c(=O)c3sccc23)cc(OC)c1CN1CCC(CN2CCC3(CC2)CC(Oc2ccc4c(c2)CN(C2CCC(=O)NC2=O)C4=O)C3)CC1 (stereo not drawn) [Compound D193],–,< 10
COc1cc(-c2cn(C)c(=O)c3cc(C)sc23)cc(OC)c1CN1CCC2(CC1)CN(c1ccc3c(c1)C(=O)N(C1CCC(=O)NC1=O)C3)C2 (stereo not drawn) [Compound D132],–,< 10
COc1cc(-c2cn(C)c(=O)c3cc(C(=O)N[C@@H]4CCN(c5ccc6c(c5)CN(C5CCC(=O)NC5=O)C6=O)CC4(F)F)sc23)cc(OC)c1CN(C)C (stereo partly drawn) [Compound D155],–,< 10
COc1cc(-c2cn(C)c(=O)c3ccsc23)cc(OC)c1CN1CCC(CN2CCC3(CC2)CC(Oc2ccc4c(c2)C(=O)N(C2CCC(=O)NC2=O)C4)C3)CC1 (stereo not drawn) [Compound D174],–,< 10
CNc1cc2c(=O)n(C)cc(-c3cc(OC)c(CN4CCC5(CC4)CN(c4ccc6c(c4)C(=O)N(C4CCC(=O)NC4=O)C6)C5)c(OC)c3)c2s1 (stereo not drawn) [Compound D97],–,< 10
COc1cc(-c2cn(C)c(=O)c3cc(C(=O)NC4CCN(C5CC6(C5)CN(c5ccc7c(c5)CN(C5CCC(=O)NC5=O)C7=O)C6)CC4(F)F)sc23)cc(OC)c1CN(C)C (stereo not drawn) [Compound D137],–,> 100
COc1cc(-c2cn(C)c(=O)c3ccsc23)cc(OC)c1CN1CCC2CCN(c3ccc4c(c3)CN(C3CCC(=O)NC3=O)C4=O)CC2C1 (stereo not drawn) [Compound D121],–,< 10
COc1cc(-c2cn(C)c(=O)c3c(C)c(C(=O)NC4CCN(C5CCN(c6ccc7c(c6)C(=O)N(C6CCC(=O)NC6=O)C7)CC5)CC4(F)F)sc23)cc(OC)c1CN(C)C (stereo not drawn) [Compound D148],–,> 1000
COc1cc(-c2cn(C)c(=O)c3cc(C(=O)NC4CCN(C(=O)CN5CCC6(CC5)CN(c5ccc7c(c5)CN(C5CCC(=O)NC5=O)C7=O)C6)CC4(F)F)sc23)cc(OC)c1CN(C)C (stereo not drawn) [Compound D18],< 10,–
COc1cc(-c2cn(C)c(=O)c3cc(C(=O)NC4C[C@@H]5CN(CCN6CCN(c7ccc8c(c7)C(=O)N(C7CCC(=O)NC7=O)C8=O)CC6)C[C@H]45)sc23)cc(OC)c1CN(C)C (stereo partly drawn) [Compound D64],> 100,–
COc1cc(-c2cn(C)c(=O)c3ccsc23)cc(OC)c1CN1CCC(CN2CCC3(CC2)CN(c2ccc4c(c2)C(=O)N(C2CCC(=O)NC2=O)C4)C3)CC1 (stereo not drawn) [Compound D99],–,< 10
COc1cc(-c2cn(C)c(=O)c3cc(C(=O)NC4CCN(C)CC4(F)F)sc23)cc(OC)c1CN1CC(CN2CCC3(CC2)CN(c2ccc4c(c2)C(=O)N(C2CCC(=O)NC2=O)C4)C3)C1 (stereo not drawn) [Compound D188],–,< 10
COc1cc(-c2cn(C)c(=O)c3cc(C(=O)NCC4CC45CCN(CCCN4CCN(c6ccc7c(c6)C(=O)N(C6CCC(=O)NC6=O)C7=O)CC4)CC5)sc23)cc(OC)c1CN(C)C (stereo not drawn) [Compound D56],> 10,–
COc1cc(-c2cn(C)c(=O)c3cc(C(=O)N[C@@H]4CCN(C5CCN(c6ccc7c(c6)C(=O)N(C6CCC(=O)NC6=O)C7)CC5)CC4(F)F)sc23)cc(OC)c1CN(C)C (stereo partly drawn) [Compound D162],–,< 10
COc1cc(-c2cn(C)c(=O)c3ccsc23)cc(OC)c1CN1CCN(C(=O)c2csc(C(=O)c3c[nH]c4ccccc34)n2)CC1 [DD2],–,> 1000
COc1cc(-c2cn(C)c(=O)c3cc(C(=O)NC4CCC45CCN(C(=O)CCN4CCN(c6ccc7c(c6)C(=O)N(C6CCC(=O)NC6=O)C7=O)CC4)CC5)sc23)cc(OC)c1CN(C)C (stereo not drawn) [Compound D54],> 100,–
COc1cc(-c2cn(C)c(=O)c3cc(C(=O)N[C@H]4CCN(c5ccc6c(c5)CN(C5CCC(=O)NC5=O)C6=O)CC4(F)F)sc23)cc(OC)c1CN(C)C (stereo partly drawn) [Compound D151],–,< 10
COc1cc(-c2cn(C)c(=O)c3sccc23)cc(OC)c1CN1CCC(CN2CCC3(CC2)CC(Oc2ccc4c(c2)CN(C2CCC(=O)NC2=O)C4=O)C3)CC1 (stereo not drawn) [Compound D199],–,< 10
COc1cc(-c2cn(C)c(=O)c3cc(C(=O)NC4CC5(CCN(CCN6CCN(c7ccc8c(c7)C(=O)N([C@@H]7CCC(=O)NC7=O)C8=O)CC6)C5)C4)sc23)cc(OC)c1CN(C)C (stereo partly drawn) [Compound D65],< 10,–
COc1cc(-c2cn(C)c(=O)c3cc(C(=O)NC4CN(C5CCN(c6ccc7c(c6)C(=O)N(C6CCC(=O)NC6=O)C7=O)CC5)CC4(F)F)sc23)cc(OC)c1CN(C)C (stereo not drawn) [Compound D187],–,< 10
COc1cc(-c2cn(C)c(=O)c3cc(C(=O)NC4CC5CC4CN5CCCCCOc4cccc5c4C(=O)N(C4CCC(=O)NC4=O)C5=O)sc23)cc(OC)c1CN(C)C (stereo not drawn) [Compound D82],> 100,–
